Earlier results as cited in patent US20250049743A1, “METHOD OF PRODUCING AN ORAL OSMOTIC PHARMACEUTICAL DELIVERY SYSTEM AND A PHARMACEUTICAL BATCH PRODUCED USING THE SAME” (United Therapeutics Corporation, priority 2023, published 2025).

Settings: treprostinil as the free acid

- absolute oral bioavailability: less than 10%
SMILES: CCCCC[C@H](O)CC[C@@H]1[C@H]2Cc3cccc(OCC(=O)O)c3C[C@H]2C[C@H]1O [treprostinil]
